Measurements as given in PubChem BioAssay (NCI).
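Dose response: 5 concentrations. Exposure: 48 h. Format: 96-well plates. Endpoint: linear interpolation; highest concentration if not reached. At the TGI there is no net growth.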 Where a SMILES comes first, the peptide text is derived from it. Bridges are numbered along the chain shown (N, C = ends). The star is where a group is joined. Cbz = O=C(OCc1ccccc1)*

Legend:
Test in all cases: NCI tumour cell line growth inhibition, 48 h
[1] = system: NCI-H226 lung
[2] = system: SK-OV-3 ovarian
[3] = system: UACC-62 melanoma
[4] = system: OVCAR-5 ovarian
[5] = system: A498 renal
[6] = system: SF-295 CNS
[7] = system: RPMI-8226 leukemia
[8] = system: UACC-257 melanoma
[9] = system: ACHN renal
[10] = system: LOX IMVI melanoma

Compound | TGI [1] [µM] | TGI [2] [µM] | TGI [3] [µM] | TGI [4] [µM] | TGI [5] [µM] | TGI [6] [µM] | TGI [7] [µM] | TGI [8] [µM] | TGI [9] [µM] | TGI [10] [µM]
Cc1cc(C)c2c(=N)c3ccccc3n(CCCCCCO)c2n1 | 11.1 | 18.5 | 8.89 | 21.2 | 26.9 | 11.9 | 4.29 | 15.8 | 6.81 | 5.17
Cc1cc(O)ccc1C1(c2ccc(F)cc2)OC(=O)c2ccccc21 (stereo not given) | 8.28 | 14.2 | 16.9 | 20.1 | 32.9 | 14.2 | > 62.1 | 26.7 | 12.6 | 6.65
COc1ccc2c(-c3ccc(OCCN(C)C)cc3)c(Oc3ccc(Cl)cc3)c(=O)oc2c1 | > 55.7 | 29.3 | 7.52 | 36.8 | 29.4 | 5.42 | 14.8 | 3.75 | 20.9 | 4.3
CCCCCn1c(=O)c2c(=O)[nH][nH]c2c2ccccc21 | > 100 | > 100 | > 100 | > 100 | > 100 | > 100 | > 100 | > 100 | > 100 | > 100
C=C(Br)CNCC(=C)Br | > 100 | > 100 | > 100 | > 100 | > 100 | > 100 | > 100 | 98.6 | > 100 | > 100
CCOC(=O)c1c(N2CCOCC2)[nH]c(=O)c(C(c2cccs2)c2c(O)c(C(=O)OCC)c(N3CCOCC3)[nH]c2=O)c1O | > 100 | > 100 | > 100 | > 100 | > 100 | > 100 | > 100 | > 100 | > 100 | > 100
O=C(O)c1cc(Cl)cc2c1NC1(N2)C(=O)Nc2ccccc21 (stereo not given) | > 100 | > 100 | > 100 | > 100 | > 100 | > 100 | > 100 | > 100 | > 100 | > 100
Oc1nc(N/N=C/c2ccccc2)[nH]c1/C=C1\C=Nc2ccccc21 | > 100 | > 100 | > 100 | > 100 | > 100 | > 100 | > 100 | > 100 | > 100 | > 100
COC(=O)C1CCCCNC(=O)CCC(NC(=O)OCc2ccccc2)C(=O)N1 (stereo not drawn) (Cbz-Glu-Lys-OMe; lactam 1-2; configuration not given here) | > 100 | > 100 | > 100 | > 100 | > 100 | > 100 | > 100 | > 100 | > 100 | > 100
O/N=C1/C2CC3CC1(c1ccccc1)CC(/C3=N/O)/C2=N\O (stereo not given) | > 100 | > 100 | > 100 | > 100 | > 100 | > 100 | > 100 | > 100 | > 100 | > 100
COc1nc(OC)nc(-c2cccc(F)c2)n1 | 31.1 | 31.4 | 22 | 28.5 | 34.1 | 30 | 45.3 | 30.7 | 30.7 | 43.7
Cc1ccc(SC[C@@]2(C(F)F)NC(=O)NC2=O)cc1 | > 100 | > 100 | > 100 | > 100 | > 100 | > 100 | > 100 | > 100 | > 100 | > 100
Cc1ccc(N=C2SC(c3ccc(C)cc3)(c3ccc(C)cc3)c3ccccc32)cc1 | > 100 | > 100 | > 100 | > 100 | > 100 | > 100 | > 100 | > 100 | > 100 | > 100
C#CCSc1nc(N)c2ncn(C3OC(COP(=O)(O)O)C(O)C3O)c2n1 (stereo not given) | > 239 | > 239 | > 239 | > 239 | > 239 | > 239 | > 239 | > 239 | > 239 | > 239
O=C1NC2CCCCC2N=C1/C(C(=O)c1ccccc1)=C(\O)c1ccccc1 (stereo not given) | 46.8 | 84.8 | 68.9 | > 100 | > 100 | > 100 | > 100 | > 100 | > 100 | > 100
